IC50 data for 24 molecules are collected here from ChEMBL document CHEMBL1127275, “Peptide based P21RAS farnesyl transferase inhibitors: systematic modification of the tetrapeptide CA1A2X motif” (Bioorg Med Chem Lett, 1994).

Molecules are shown by their SMILES. pIC50: −log10 of the molar value.

The test deals with Protein farnesyltransferase (Rattus norvegicus, UniProt Q02293+Q04631). Nature of the test: In vitro inhibitory concentration evaluated against P21ras Farnesyl transferase. It counts as protein-complex assay.

In general, pIC50 refers to the negative decadic logarithm of the IC50, by convention in mol/L. A low value points to a large IC50. As to `CN[C@@H](CS)C(=O)N[C@H](C(=O)N[C@@H](Cc1ccccc1)C(=O)N[C@@H](CCSC)C(=O)O)C(C)C`, the pIC50 was 6.38. Under `CSCC[C@H](NC(=O)[C@H](Cc1ccccc1)NC(=O)[C@H](C(C)C)N(C)C(=O)[C@@H](N)CS)C(=O)O` stands 6.60; under `CSCC[C@H](NC(=O)[C@H](Cc1ccccc1)NC(=O)C1(NC(=O)[C@@H](N)CS)CCCCC1)C(=O)O`, 5.92; under `CSCC[C@H](NC(=O)[C@H](Cc1ccccc1)NC[C@@H](NC(=O)[C@@H](N)CS)C(C)C)C(=O)O`, 6.90.

In turn, `CSCC[C@H](NC(=O)[C@H](Cc1ccccc1)N(C)C(=O)[C@@H](NC(=O)[C@@H](N)CS)C(C)C)C(=O)O` gave a pIC50 of 6.44. In the case of `CSCC[C@H](NC(=O)[C@H](CCc1ccccc1)NC(=O)[C@@H](NC(=O)[C@@H](N)CS)C(C)C)C(=O)O`, the pIC50 was 6.92. Under `CSCC[C@H](NC(=O)[C@H](Cc1ccccc1)NC(=O)[C@@H](NC(=O)[C@@H](N)CC(=O)O)C(C)C)C(=O)O` stands 3.60; under `CSCC[C@H](NC(=O)[C@@H](NC(=O)[C@@H](NC(=O)[C@@H](N)CS)C(C)C)c1ccccc1)C(=O)O`, 6.16. Under `CSCC[C@H](NC(=S)[C@H](Cc1ccccc1)NC(=O)[C@@H](NC(=O)[C@@H](N)CS)C(C)C)C(=O)O` stands 7.77; under `CSCC[C@H](NC(=O)[C@H](Cc1c[nH]c2ccccc12)NC(=O)[C@@H](NC(=O)[C@@H](N)CS)C(C)C)C(=O)O`, 7.85.

As for `CSCC[C@H](NC(=O)[C@H](Cc1ccccc1)NC(=O)[C@@H](NC[C@@H](N)CS)C(C)C)C(=O)O`, the pIC50 is 7.92. Consider `CSCC[C@H](NC(=O)[C@H](Cc1ccccc1)NC(=O)[C@@H](NC(=O)[C@@H](N)Cc1cnc[nH]1)C(C)C)C(=O)O`, for which the negative logarithm of the IC50 (pIC50) was 5.17. Under `CSCC[C@H](NC(=O)[C@H](Cc1ccccc1)NC(=O)[C@@H](NC(=O)C[C@H](N)CS)C(C)C)C(=O)O` stands 5.74. As for `CC(C)[C@H](NC(=O)[C@@H](N)CS)C(=O)N[C@@H](Cc1ccccc1)C(=O)N[C@@H](Cc1ccccc1)C(=O)O`, the negative-log IC50 (pIC50) is 6.40. In turn, `CSCC[C@H](NC(=O)[C@@H](NC(=O)[C@@H](NC[C@@H](N)CS)C(C)C)C(C)C)C(=O)O` had a negative-log IC50 (pIC50) of 7.54. With `CSCC[C@H](NC(=O)[C@H](Cc1ccc2ccccc2c1)NC(=O)[C@@H](NC(=O)[C@@H](N)CS)C(C)C)C(=O)O`, the pIC50 is 7.92.

In turn, `CSCC[C@H](NC(=O)[C@@H](NC(=O)[C@@H](NC(=O)[C@@H](N)CS)C(C)C)C(C)C)C(=O)O` gave a pIC50 of 7.17. Under `CSCC[C@H](NC(=O)[C@H](Cc1ccccc1)NC(=O)[C@@H](NC(=O)[C@@H](N)CCC(=O)O)C(C)C)C(=O)O` stands 3.92.

Consider `CSCC[C@H](NC(=O)[C@H](Cc1ccccc1)NC(=O)[C@H](C)NC(=O)[C@@H](N)CS)C(=O)O`, for which the negative logarithm of the IC50 (pIC50) was 6.62.

The molecule `CSCC[C@H](NC(=O)[C@H](Cc1ccccc1)NC(=O)C(C)(C)NC(=O)[C@@H](N)CS)C(=O)O` showed a negative-log IC50 (pIC50) of 6.40. Under `CSCC[C@@H](C(=O)O)N(C)C(=O)[C@H](Cc1ccccc1)NC(=O)[C@@H](NC(=O)[C@@H](N)CS)C(C)C` stands 5.85; under `CCCC[C@H](NC(=O)[C@H](Cc1ccccc1)NC(=O)[C@@H](NC(=O)[C@@H](N)CS)C(C)C)C(=O)O`, 6.02; under `CSCC[C@H](NC(=O)[C@H](Cc1ccccc1)NC(=O)[C@@H](NC(=O)[C@@H](N)CCS)C(C)C)C(=O)O` (stereo in doubt; form 1), 6.29. Under `CSCC[C@H](NC(=O)[C@H](Cc1ccccc1)NC(=O)[C@@H](NC(=O)[C@@H](N)CCS)C(C)C)C(=O)O` (stereo in doubt; form 2) stands 5.57.
